Data taken from a melting point compilation (Tetko et al.; mined from patent text by program, amines drawn as free bases though some values may be those of a salt).

Row | melting point | Compound
1 | 105 °C | CC(C)OP(=O)(/C=C/CCn1cnc2c(Cl)ncnc21)OC(C)C
2 | 52 to 53 °C | CCC(O)(c1ccc(OCc2ccccc2)cc1)c1cccc(Cl)c1 (stereo not drawn)
3 | 247 to 248 °C | CC(C)(C)c1ccc(N2C[C@@H](COc3ccc(C(=O)O)cc3)CC2=O)cc1
4 | 176 to 177 °C | CC(C)C1C(C=C(Br)Br)=CC=CN1C12CC3CC(CC(C3)C1)C2 (stereo not drawn)
5 | 287 to 288 °C | Cc1nc(N)sc1C(=O)c1cccnc1
6 | 90 to 92 °C | CC(=O)SCC(Cc1ccccc1)C(=O)Nc1cccc(C(=O)OCCOc2ccccc2)c1 (stereo not drawn)
7 | 189 to 190 °C | O=C(c1cccc2nc3n(c12)CCCN3c1ccc(Cl)cc1Cl)C1CC1
8 | 185 to 188 °C | COc1ccccc1C(=O)Nc1ccc(C(=O)N2Cc3cccn3Cc3ccccc32)cc1
9 | 60 °C | Cc1ccc(S(=O)(=O)CC2COc3ccccc3O2)cc1 (single isomer, unassigned; (+))
10 | 229 to 230 °C | CNC(=O)c1cccc(NC(=O)Cc2c(O)ccc3ccccc23)c1
11 | 92 to 93 °C | O=[N+]([O-])c1ccc(CCn2cccn2)cc1
12 | 126 to 128 °C | OCC(O)Cc1nccn1CCCCc1ccc(OCc2coc(/C=C/c3ccc(F)cc3F)n2)cc1 (stereo not drawn)
13 | 155 to 157 °C | CCCCCCCCNC(=O)Nc1ccccc1C(=O)NCC1CCN(C(c2ccccc2)c2ccccc2)CC1
14 | 139 to 140 °C | CC(=O)NC(C)CCC1CCC(n2cc3ccc(OCC4CC4)cc3n2)CC1 (stereo not drawn)
15 | 224 to 225 °C | CCc1cc(-c2nc(C)c(-c3ccnc(Nc4ccc(CNC(C)=O)cc4)n3)s2)ccn1
16 | 119 to 120 °C | Cc1oc2ccc(NC(=O)c3ccccc3)nc2c1CCN(C)C
17 | 110 to 111 °C | COc1ccc(Oc2ccc(C(=O)CC(SC(C)=O)C(=O)O)cc2)cc1 (stereo not drawn)
18 | 161 to 162 °C | CC1(c2cccs2)Cc2cc(OCC(=O)O)c(Cl)c(Cl)c2C1=O (stereo not drawn)
19 | 100 to 102 °C | Cc1cc(C(C)(O)c2scnc2C)c(C)o1 (stereo not drawn)
20 | 215 to 216 °C | Oc1cc2ccc(Br)cc2cc1C12CC3CC(CC(C3)C1)C2
21 | 118 to 119 °C | CCc1c(OC)nc(OC)nc1C(=O)c1cc(Cl)cc(Cl)c1
22 | 151 to 154 °C | CNCCc1ccc2[nH]cc(S(=O)(=O)c3ccccc3)c2c1
23 | 125 to 145 °C | Cc1cc(C)nc(NC(=O)NS(=O)(=O)C2CC3C=CC2O3)n1 (stereo not drawn)
24 | 62.5 to 63.5 °C | NS(=O)(=O)Oc1ccccc1Cl
25 | 225 to 228 °C | CSC1NC(=O)N(c2cccc(C(F)(F)F)c2)C(=O)N1
26 | 64 to 66 °C | O=C(Nc1ccc(OC(F)(F)F)c(Br)c1)C(F)(F)F

Row | melting point | Compound
27 | 44 to 45 °C | C=CCOC(=O)[C@H](Cc1ccccc1)NC(=O)C(F)(F)F
28 | 150 to 151 °C | O=C(OC1C(O)COC(Oc2ccc([N+](=O)[O-])cc2)C1OC(=O)c1ccccc1)c1ccccc1 (stereo not drawn)
29 | 111 °C | CCC1(CC)Cc2cc(OCC(=O)O)c(Cl)c(Cl)c2C1=O
30 | 201 to 202 °C | CN(c1cccc2cc(-c3nccs3)[nH]c12)S(=O)(=O)c1cccs1
31 | 63 to 65 °C | CCN(CC)C(=O)C(=NNc1ccccc1)C(C)=O
32 | 168 °C | NC(=O)c1ccccc1-c1cnn(CCN2CCCCC2)c1
33 | 64 °C | CSC(=S)C1(c2ccccn2)CCCS1 (stereo not drawn)
34 | 196 to 198 °C | CN1CCN(Cc2ccc(C(=O)Nc3ccc(CO)c(Nc4nccc(-c5cccnc5)n4)c3)cc2)CC1
35 | 155 to 157 °C | Cc1nc2c3c(c(CCl)cn2c1C)CCC(c1ccccc1)C3 (stereo not drawn)
36 | 218 to 219 °C | CN(C)C=NCc1ccc2c(c1)Nc1nccnc1S2
37 | 126 to 127 °C | CS(=O)(=O)c1ccc(C2=C(c3ccccc3)C(=O)C3(CCCCC3)O2)cc1
38 | 119 to 120 °C | COC(=O)c1cc(I)ccc1NS(C)(=O)=O
39 | 155 to 156 °C | OCc1c(CO)c2sc3ccccc3n2c1-c1ccc(F)cc1
40 | 221 to 222 °C | Cc1nc(-c2ccc(F)cc2)n(-c2ccc(S(N)(=O)=O)cn2)n1
41 | 241 to 242 °C | COCCOc1cc2ncnc(NC3=CC(=O)C(NCc4cccc(C)c4)=CC3=O)c2cc1OC
42 | 95 °C | CN(C)S(=O)(=O)c1cccc2cccc(O)c12
43 | 123 °C | COc1cc(Nc2nccc(-c3ccc(NCCO)nc3)n2)cc(OC)c1OC
44 | 126 °C | CCOc1n[nH]c(=O)n1C
45 | 55 to 58 °C | CCCCOC(=O)CNC(=O)c1ncccc1OCc1ccccc1
46 | 75 to 78 °C | CON1CCC(C#N)(OC(=O)Cc2c(C)cc(C)cc2C)CC1
47 | 164 to 165 °C | NCc1ccccc1C1CCN(c2c(F)c(N)c3c(=O)c(C(=O)O)cn(C4CC4)c3c2F)C1 (stereo not drawn)
48 | 273 to 276 °C | COCc1nc(-c2ccc(-c3cnc4[nH]c(=O)n(CC5CCOCC5)c4n3)cc2)n[nH]1
49 | 238 to 240 °C | COc1ccc2nc(NC(=O)C(CC3CCCC3)c3ccc(S(=O)(=O)NCc4ccccc4F)cc3)sc2n1 (stereo not drawn)
50 | 148 to 150 °C | CCOC(=O)c1cnn2c(NCc3ccc(-c4ccccc4C#N)cc3)ccnc12
51 | 132 °C | CCOC(=O)N1CCCc2nc3cc(C)ccc3c(C)c2C1
52 | 148 to 150 °C | CCCCn1c(=O)c2c(ncn2S(=O)(=O)c2ccc(NO)cc2)n(CCCC)c1=O

Row | melting point | Compound
53 | 64 to 66 °C | COC(=O)c1cc(S(C)=O)ccc1OC (stereo not drawn)
54 | 86 to 88 °C | CCCOC1(c2ccc(C)cc2C)N=C(c2ccc(C)cc2C)N=CN1 (stereo not drawn)
55 | 126 to 127 °C | CCC(=O)Nc1ccc(C(=O)C(C)Br)cc1 (stereo not drawn)
56 | 127 to 129 °C | CCCOc1cc(OC)c2c(c1)C(=O)c1cccc(OCCN(CC)CC)c1-2
57 | 152 to 153 °C | CNC(=O)[C@H]1O[C@@H]1c1ccc(C)cc1
58 | 171 °C | CC(=O)N(C1=C(Cl)C(=O)c2c(cnn2C)C1=O)C1CC1
59 | 172 to 173 °C | O=C(O)c1cnc(Oc2ccccc2)s1
60 | 127 to 129 °C | CNC(=O)c1cc2nc(C(F)(F)F)ccc2cc1NC(=O)c1cc(Br)nn1-c1ncccc1Cl
61 | 120 to 121 °C | O=c1c(O)c(-c2ccc(OCc3ccccc3)c(OCc3ccccc3)c2)oc2cc(OCc3ccccc3)ccc12
62 | 173 to 174 °C | Cc1c(CC(=O)O)oc2ccc(-c3ccccc3)cc12
63 | 111 to 112 °C | c1nnc(N2CCN(Cc3ccc4c(c3)OCO4)CC2)s1
64 | 120 to 121 °C | Fc1cccc(-c2nc(-c3ccccn3)no2)c1F
65 | 200 to 204 °C | COc1cc(C)nc(NC(=O)NS(=O)(=O)c2ccccc2-n2cccn2)n1
66 | 192 to 193 °C | O[C@H]1[C@H](O)CS[C@H]1n1cnc2c(Cl)ncnc21
67 | 142 to 143 °C | COc1ccccc1Cc1ccc(=O)[nH]n1
68 | 60 °C | Cc1c(C=O)cc2c(c1C)OCC2
69 | 130 to 131 °C | CCOc1nn(-c2ccc(C(F)(F)F)cn2)cc1CCCOc1ccc(Cl)cc1CC(=O)O
70 | 269 °C | COc1ccc(-c2[nH]nc3c2C(=O)c2c(NC(=O)NNC(=O)CCCc4ccccc4)cccc2-3)cc1
71 | 73.5 to 74.5 °C | CC1(C)OC(=O)C2=C(CCCCCC2)O1
72 | 240 °C | CCCNc1nc(C)c(CCO)c(=O)n1C
73 | 149 to 150 °C | CNCc1ccccc1-c1ccc(C(=O)N2Cc3ccc(C(=O)NCc4cccnc4)n3Cc3ccccc32)cc1
74 | 185 to 195 °C | COc1cc(/C=C/C(=O)Oc2ccc(NC(C)=O)cc2)ccc1O
75 | 233 to 234 °C | O=C(C1CCC(Nc2nccc(-n3nnc4c(-c5ccsc5)cccc43)n2)CC1)N1CCC(O)CC1 (stereo not drawn)
76 | 174 °C | O=C(O)C(Cc1ccccc1)Nc1nccc(-c2ccc(OCc3ccccc3)cc2)n1 (stereo not drawn)
77 | 154 to 158 °C | Cc1c(OCCCCSCCn2c([N+](=O)[O-])cnc2C)ccnc1CNc1cnc2ccccc2c1
78 | 38 to 40 °C | C=CCC(O)(C(=O)c1ccc(C)cc1)c1ccc(C)cc1 (stereo not drawn)

Row | melting point | Compound
79 | 89 to 90 °C | CCC(=O)NCCC1CCc2ccc3ncoc3c21 (stereo not drawn)
80 | 155 to 157 °C | CCn1cc2c(n1)c(Cl)nc1cc(OCc3ccccc3)ccc12
81 | > 300 °C | Sc1cc(Cl)nc2ncnn12
82 | 70 to 72 °C | COC(=O)c1ccc(OCCCC2Cc3c(c(OC)c(OC)c(OC)c3OC)C2)cc1
83 | 216 to 217 °C | CCC1Oc2ccc(-c3nc4ccccn4c3C)cc2NC1=O (stereo not drawn)
84 | 137 to 138 °C | Cc1nnc(-c2ccc3occ(-c4cnn(Cc5cccnc5)c4)c3c2)o1
85 | 135 to 137 °C | CN(C)CCN(C1CCN(C)CC1)S(=O)(=O)c1ccc(Nc2nccc(Nc3ccc(F)cc3)n2)cc1
86 | 217 to 218 °C | CCOC(=O)c1cc(=O)c2cc(O)ccc2s1
87 | 196 °C | CCCn1c(=O)c(C#N)c(N2CCN(C(=O)c3cccs3)CC2)c2cccnc21
88 | > 250 °C | CC(C)C1=C(C#N)C(c2ccccc2Br)c2c(n[nH]c2CC#N)N1 (stereo not drawn)
89 | 104 to 106 °C | C=CCOc1cc(OC(=S)N2CCSC2)ccc1Cl
90 | 96 to 98 °C | CCCN(CCCC12CC3CC(CC(C3)C1)C2)C(=O)NCc1ccncc1
91 | 70 °C | CCCCn1nc(SCCCCCC(=O)O)c(C(=O)O)c1Cc1cc2c(cc1Cl)OCO2
92 | 178 to 180 °C | OCc1cc2cc3c(cc2nc1I)OCCO3
93 | 177 to 178 °C | Cc1nc2c(OCc3c(N)cccc3Cl)cccn2c1Br
94 | 155 to 158 °C | COc1nc(C)nc(NC(=O)NS(=O)(=O)c2ccccc2C(=S)C(C)C)n1
95 | 108 to 109 °C | CCOC(=O)C1OC1C(=O)NC(CC(C)C)C(OC)c1ccccc1 (stereo not drawn)
96 | 91 to 93 °C | COc1cc(OC)c2c(=O)cc(-c3ccccc3Cl)oc2c1C1CCN(C)C1CO (stereo not drawn)
97 | 193 °C | COc1cccc(S(N)(=O)=O)c1C
98 | 44 to 46 °C | COC(=O)c1c(O)ccn1C
99 | 135 to 136 °C | O=C1NN=C(c2ccc(C(F)(F)F)cc2)CC1C(F)(F)F (stereo not drawn)
100 | 41 to 42 °C | CCc1cc2cc(F)ccc2[nH]1
101 | 192 °C | NS(=O)(=O)C(Br)(Br)S(=O)(=O)c1ccc(Br)cc1

Row | Compound | melting point
102 | CNS(=O)(=O)c1sccc1CCl | 52 to 53 °C
103 | CCOC1=CC2=CC[C@@H]3[C@H](CC[C@]4(CC)C(=O)C=C[C@@H]34)[C@H]2CC1 | 137 °C
